US20260125388A1 (priority 2022, published 2026)
Values after ≈ are worked out from the molar mass of the structure shown. Read-outs that look alike come from different tables or passages of the source.

Columns and labels:
[1] = test system: C57/BL6 mice challenged with MC903; experiment: Acute treatment in the MC903 mouse model, scratch count; type: in vivo; settings: single oral gavage on day 19; recording from 40 min after dose; oclacitinib 45 mg/kg, PI-301 100 mg/kg; p<0.05 vs vehicle
Experimental: In another study, the acute treatment effects of oclacitinib (a JAK inhibitor approved for veterinary use) and PI-301 were studied in the MC903 model using C57/BL6 mice. As described previously, MC903 was applied topically on both sides of both ears (1 nmol). On day 19 of the study (D1), drugs or vehicle were administered to individual treatment groups by oral gavage: oclacitinib (45 mg/kg) or PI-301 (100 mg/kg). Mice were video recorded for 60 minutes beginning 40 minutes after drug administration and scratches counted.

[2] = test system: IL-6, IL-10, IL-13 and TSLP mRNA in mouse ears; experiment: RT-PCR of cytokine mRNA in ears of MC903 challenged mice; type: in vivo; settings: ear mRNA, vs vehicle
Experimental: RT-PCR was used to assay the change in cytokines in MC903 challenged animals treated with PI-301. Left mouse ears stored at −20° C. were thawed, rinsed with water and homogenized in 500 μL RLT buffer (Qiagen, 79216). The liquid was added to a QIAshredder (Qiagen, 79654) and centrifuged at 6000 g for 2 min. 350 μL of the supernatant was combined with 350 μL 70% ethanol and mRNA purified with a RNeasy Mini Kit (Qiagen, 74104). mRNA was analyzed using the Accuris qMAX Green One-Step RT-qPCR Kit (Accuris Instruments) along with primers for IL-4, IL-5, IL-6, IL-10, IL-13, INFγ, and TSLP. Data were acquired using an Eppendorf Mastercycler Pro (45° C. 10 min, 95° C. 2 min, [95° C. 30 s, 55° C. 1 min, 72° C. 2 min]×45) and analyzed by the Delta and Delta-Delta Ct method. Each measurement was carried out in triplicate.

[3] = test system: C57/BL6 male mice challenged with MC903; experiment: Mouse atopic dermatitis model, MC903 challenge, twice daily oral dosing; type: in vivo
Text: An established mouse model of atopic dermatitis (AD) was used to evaluate the efficacy of PI-301 ((R)-8-bromo-6-(2-fluorophenyl)-4-methyl-4H-benzo[f]-imidazo[1,5-a][1,4]diazepine-3-carboxylic acid) in reducing ear thickness, scratching frequency, and inflammatory markers following MC903 challenge (for background on the model see: J Invest Dermatol 138, 2606-2616; Proc Natl Acad Sci USA, 103, 11736-11741; Sci Transl Med, 5, 170ra116; J Invest Dermatol, 138, 1555-1563). The increase of ear thickness is based on the increased diameter of stratum, epidermis, and dermis as determined by standard histological analysis. The thickening of the stratum is based on parakeratosis and hyperkeratosis, the thickening of the epidermis is based on acanthosis and spongiosis and the thickening of the dermis is based on inflammatory infiltration. This reflects increased numbers of neutrophils, mast cells, and, to a lesser extent, eosinophils.
C57/BL6 male mice 8 weeks of age were group housed under a 12 h light/dark cycle. For oral dosing, groups of 8 mice were each given twice daily treatment by voluntary feeding of vehicle (peanut butter) or PI-301 (100 mg/kg in vehicle). Animal weights were recorded daily. Three times per week animals were administered MC903 (1 nmol) on both ears topically. Ear thickness was measured with calipers and photographed.

GABAA receptor = GABAA receptor binding, competition assay with [3H]-flunitrazepam and rat brain membranes; settings: for GABAAR binding, % inhibition at 10 μM: Table 3
Experimental: GABAA receptor binding: Rat brain membranes were prepared from frozen tissue that was thawed on ice and homogenized on ice in 10 volumes of cold lysis buffer (50 mM Tris HCl, pH 7.4, containing protease inhibitor cocktail from Roche) using a Polytron homogenizer (6 pulses and 10 seconds per pulse). The homogenate was centrifuged at 1,000×g for 10 min at 4° C. to obtain the supernatant. The supernatant was then centrifuged at 40,000×g for 20 min, and the resulting supernatant decanted and replaced with the same ice-cold lysis buffer. Two or three additional rounds of homogenization-centrifugation were performed to ensure thorough homogenization and also to wash out endogenous ligands. The final pellet was resuspended in the same buffer and homogenized one last time. […] Total binding and nonspecific binding were determined with reference compound clonazepam. […] Scintillation cocktail is then melted onto the microwave-dried filters on a hot plate and radioactivity counted in a Microbeta counter. The data (n=6) were analyzed by nonlinear regression.

HEK293 cells = experiment: Cytotoxicity, CellTiter-Glo cell viability assay; type: cell-based, human; settings: for Cytotoxicity LD50: HEK293 cells, CellTiter-Glo, Table 3; for LD50 HEK293: human kidney cells, Table 2
Experimental: Compounds with increased cytotoxicity can be identified using an in vitro cytotoxicity assay. Therefore, human embryonic kidney 293T (HEK293T) cell lines were purchased (ATCC) and cultured in 75 cm2 flasks (CellStar). Cells were grown in DMEM/High Glucose (Hyclone, #SH3024301) media to which non-essential amino acids (Hyclone, #SH30238.01), 10 mM HEPES (Hyclone, #SH302237.01), 5×106 units of penicillin and streptomycin (Hyclone, #SV30010), and 10% of heat inactivated fetal bovine serum (Gibco, #10082147) were added. Cells were harvested using 0.05% Trypsin (Hyclone, #SH3023601). The cell viability assay was evaluated using CellTiter-Glo™ Luminescent Cell Viability Assay Kit (Promega, Madison, WI), which contains luciferase and all its substrate except ATP. The controls for the cytotoxicity assay used were (E)-10-(bromotriphenylphosphoranyl)decyl 4-(4-(tert-butyl)phenyl)-4-oxobut-2-enoate (400 μM in DMSO, positive control) and DMSO (negative control). All luminescence readings were performed on a Tecan Infinite M1000 plate reader. Small volume transfers were performed on the Tecan Freedom EVO liquid handling system with a 100 nL pin tool transfer (V&P Scientific). Serial dilutions were done in 96-well polypropylene plates (Coming, #3365) and assays were conducted in 384-well white optical bottom plates. The assays were carried out in quadruplet in three independent runs. The data were normalized to the controls and if possible analyzed by nonlinear regression (GraphPad Prism).

[4] = Aqueous solubility, shake flask in PBS buffer; type: physicochemical; settings: for Aqueous solubility: pH 7.2; for Aqueous solubility (footnote b: mM): pH 7.2, cells marked b
Experimental: 5-50 mg of compound was added to 500 μL of PBS buffer at pH 7.4. The pH was adjusted if necessary, using a 1M NaOH solution. The solutions were vortexed for 10 s, sonicated for 2 min and agitated with a horizontal shaker in a closed vial for 24 h. The mixtures were transferred to an Eppendorf tube and centrifuged for 5 min at 16000×g followed by filtration through […] cellulose acetate spin X centrifuge filter (Costar). 200 μL of filtrate was transferred to a new Eppendorf tube and 200 μL of methanol was added and then subsequent dilution was made in 50:50 methanol/PBS buffer water if necessary. After mixing, 50 μL were transferred into a 384 well plate (Coring UV star, 781801) for UV detection at 250-600 nm (Tecan M1000). The assay was carried out with three independent samples of each compound. The concentration of each solution was determined with a calibration curve in 50:50 methanol/PBS buffer water. Absorbance of corresponding methanol PBS blank were recorded and subtracted from the absorbance of calibration curve solutions and from the samples.

in vitro = settings: PAMPA, pH 7.4
Experimental: (§1) The artificial membrane was prepared by carefully pipetting 15 μL of the 5% (v/v) hexadecane in hexane solution to each of the wells of the donor plate. The plate was placed into a fume hood for 1 h to ensure complete evaporation of the hexane. After the hexane had evaporated, 300 μL of PBS with 5% (v/v) DMSO was added to each of the wells of the acceptor plate. The hexadecane treated donor plate was then placed on top of the acceptor plate taking care that the underside of the membrane is completely in contact with the solution in each of the acceptor wells. […] The lid was placed on the plates and the entire plate sandwich was placed into a closed humid environment. The container was then placed on a reciprocal shaker for agitation at about 100 rpm. The time at the beginning of the incubation was recorded, as this is a thermodynamic-based assay. The incubation was then allowed to continue for 18 h. The donor plate was removed and 50 μL of the acceptor solution was transferred to the UV plate. Drug solutions at the theoretical equilibrium concentration (100 μM) was also prepared and transferred to the UV plate. The absorbance of the solutions in the UV plate was then scanned from 250-600 nm with 1 nm steps and a 5 nm bandwidth. Log Pe was calculated as follows (Equation 1).

[5] = parallel artificial membrane permeation assay at pH 7.4
Experimental: as §1

[6] = 10 μM, 3H-flunitrazepam, rat brain extract
[7] = read-out: GABAAR binding (IC50), value in brackets, 3H-flunitrazepam, rat brain extract, Table 3, unit inferred

| Structure (SMILES) | GABAAR binding, % inhibition at 10 μM (GABAA receptor; [6]) | IC50 (GABAA receptor; [7]) | Cytotoxicity LD50 (HEK293 cells) | Aqueous solubility [4] | Permeability (log Pe (cm/s)) [5] | other results |
| --- | --- | --- | --- | --- | --- | --- |
| CNS(=O)(=O)C[C@H]1CC[C@H](N(C)c2ncnc3[nH]ccc23)CC1 [oclacitinib, reference compound] |  |  |  |  |  | scratches counted over 60 minutes [1]: significant (p<0.05) reduction in scratches |
| C[C@H]1N=C(c2ccccc2F)c2cc(Br)ccc2-n2cnc(C(=O)O)c21 [PI-301, (R)-8-bromo-6-(2-fluorophenyl)-4-methyl-4H-benzo[f]-imidazo[1,5-a][1,4]diazepine-3-carboxylic acid] |  |  |  |  |  | IL-6 induction [2]: reduced induction; IL-10 induction [2]: reduced induction; IL-13 induction [2]: reduced induction; TSLP induction [2]: reduced induction; scratches counted over 60 minutes [1]: significant (p<0.05) reduction in scratches; number of scratches ([3]; 100 mg/kg oral twice daily, days 19 and 22, vs vehicle): significantly reduced; increase of ear thickness due to MC903 ([3]; 100 mg/kg oral twice daily, significant on day 10, vs vehicle): reduced the increase of ear thickness; thicknesses of the dermis and epidermis ([3]; histology of H&E stained ear sections, p<0.005 vs vehicle): significant differences |
| CCC1N=C(c2ccccc2F)c2cc(Br)ccc2NC1=O (stereo not drawn) [Compound 35, 7-bromo-3-ethyl-5-(2-fluorophenyl)-1,3-dihydro-2H-benzo[e][1,4]diazepin-2-one] | 95% | 134 nM | >150 µM | 397 ± 31 µM |  | Papp (in vitro): 2 ×10⁻⁶ cm/s |
| C#Cc1ccc2c(c1)C(c1ccccc1F)=NC1(CC1)c1c(C(=O)OCC)ncn1-2 [Compound 18] | 56% | 509 nM | >150 µM |  |  | solubility at 24 h ([4]; PBS buffer, aqueous buffer, thermodynamic from solid, pH 7.2, read-out: Aqueous solubility): 53 ± 3 µM (≈ 21.2 µg/mL); Papp (in vitro): 25.1 ×10⁻⁶ cm/s |
| C#Cc1ccc2c(c1)C(c1ccccc1F)=NC1(CC1)c1c(C(=O)O)ncn1-2 [Compound 20, 8-ethynyl-6-(2-fluorophenyl)spiro[benzo[f]imidazo[1,5-a][1,4]diazepine-4,1′-cyclopropane]-3-carboxylic acid] | 55% | 59 nM | >300 µM |  | −6.7 ± 0.12 cm/s | LD50 HEK293 (HEK293 cells): >400 µM; Aqueous solubility (footnote b: mM) [4]: 40.3 ± 0.5 ^b mM |
| CCOC(=O)c1ncn2c1C1(CCCC1)N=C(c1ccccc1F)c1cc(Br)ccc1-2 [Compound 12] | 74% | 6220 nM | 96 ± 11 µM | 141 ± 19 µM | −6.0 ± 0.06 cm/s |  |
| O=C(O)c1ncn2c1C1(CCC1)N=C(c1ccccc1F)c1cc(Br)ccc1-2 [Compound 27, 8-bromo-6-(2-fluorophenyl)spiro[benzo[f]imidazo[1,5-a][1,4]diazepine-4,1′-cyclobutane]-3-carboxylic acid] | 59% | 1830 nM | >300 µM |  | −6.6 ± 0.10 cm/s | % Inhibition at 10 μM (GABAA receptor; 10 μM, [3H]-flunitrazepam, rat brain, Table 1): 59.4%; IC50 (GABAA receptor; [3H]-flunitrazepam, rat brain, Table 1): 1830 nM; LD50 HEK293 (HEK293 cells): >400 µM; Aqueous solubility (footnote b: mM) [4]: 58.7 ± 4.4 ^b mM |
| CCOC(=O)c1ncn2c1C1(CCC1)N=C(c1ccccc1F)c1cc(Br)ccc1-2 [Compound 11] | 19 (n.d.) % |  | 106 ± 9 µM | 144 ± 7 µM | −5.8 ± 0.10 cm/s |  |
